Data from patent US9034825B2, “Treatment of myocardial injury with humanin analogs” (Albert Einstein College of Medicine of Yeshiva University, priority 2007, dated 2015).
Values joined by “and” are separate entries in the source; they are usually repeats but may differ in a detail not shown here. Equal values may be shown once.

Experiments:
PEPCK mRNA in the liver = assay: Hepatic PEPCK mRNA by qRT-PCR at end of clamp after ICV infusion; format: in vivo, rat; details: ICV infusion for 6 h
Experimental: (§1) Total RNA was extracted following Clontech's protocol. First-stranded cDNA was synthesized from 1 μg of total RNA using Superscript III (Gibco, Gaithersburg, Md.). Hepatic glucose-6-phosphatase (Glc-6-Pase) and phosphoenolpyruvate carboxykinase (PEPCK) mRNA abundance were assessed by qRT-PCR as described previously (Buettner et al., 2005). Quantification of these peptides and their copy number was normalized for GAPDH and 18S to correct for loading irregularities. The data presented are those normalized by GAPDH.

[1] = system: Glc-6-Pase mRNA in the liver; assay: Hepatic Glc-6-Pase mRNA by qRT-PCR at end of clamp after ICV infusion; format: in vivo, rat; details: ICV infusion for 6 h
Experimental: as §1

IGF-1 = IGF-1 (Homo sapiens, UniProt P05019); assay: Western ligand blots with 125I-labeled IGF-1; format: binding; details: data not shown
Chain of IGF-1 (P05019 49-118): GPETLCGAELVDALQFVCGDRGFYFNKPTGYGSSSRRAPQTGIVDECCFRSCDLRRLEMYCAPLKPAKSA

3T3L1 adipocytes = assay: Glucose transport in 3T3L1 adipocytes; format: cell-based; details: 3T3L1 cells, basal and insulin-stimulated
From the text: Using the 3T3L1 adipocyte model, the effects of humanin on insulin action and glucose transport were investigated.

Sprague-Dawley rats [2] = assay: ICV infusion with pancreatic insulin clamp or hyperinsulinemic clamp (Example 5); format: in vivo, rat; details: for peripheral glucose infusion rate: ICV, hyperinsulinemic clamp
Experimental: Studies were conducted with 92 three-month-old male Sprague-Dawley rats (Charles River Laboratories). Rats were housed in individual cages and subjected to a standard light-dark cycle. Rats were prepared for clamps as described in FIG. 15A. Three weeks before the in vivo studies catheters were implanted in the third cerebral ventricle (Muzumdar et al. 2003). One week before clamp experiments, catheters were placed in the right internal jugular vein and left carotid artery (Liu et al. 1998).
A primed-continuous ICV infusion of HN, F6A-HN (total dose of 20 μg), STAT-3 inhibitor (75 pmol) (Buettner et al. 2006), or aCSF was initiated at t=0 and maintained for the remainder of the experiment (FIG. 15A). Pancreatic insulin-clamp studies or euglycemic-hyperinsulinemic clamps were performed in conscious, unrestrained, catheterized mice for last 120 minutes as described previously (Bahar et al. 2006, Muzumdar et al. 2006). In the intra-venous group, HN, F6A, Colivelin, and HNGF6A were infused intravenously and hyperinsulinemic clamps were performed as described previously (Loeb et al. 2005). Estimation of glucose, glucose fluxes, insulin, FFA were done as described previously (Loeb et al. 2005). HN measurements were performed by an in-house, ELISA utilizing affinity purified humanin antibodies that recognize both human and rat humanin and has a limit of detection of 0.1 ng/ml (Hwang, and Cohen personal communication).

Sprague-Dawley rats [3] = assay: ICV infusion of humanin or F6A HN with basal and hyperinsulinemic clamp (Example 2); format: in vivo, rat
From the text: Young (3 mo old, n=6 in each group), male Sprague-Dawley rats (Charles River Laboratories, Wilmington, Mass.) were used for this study. Rats were housed in individual cages and were subjected to a standard light (6:00 AM to 6:00 PM)—dark (6:00 PM to 6:00 AM) cycle. All rats were fed ad libitum using regular rat chow that consisted of 64% carbohydrate, 30% protein, and 6% fat with a physiological fuel value of 3.3-kcal/g chow. 2 to 4 weeks before the in vivo study, the rats were anesthetized by inhalation of isoflurane and ICV cannula was placed in the third ventricle for infusions of humanin, humanin analog F6A HN or artificial CSF (aCSF), as previously described (Muzumdar et al., 2003) (FIG. 6). Briefly, a 26-gauge stainless steel guide cannula (Plastics One, Roanoke, Va.) was chronically implanted into the third ventricles using the following coordinates from bregma: anterior-posterior; +0.2 mm dorsal-ventral; −9.0 mm medial-lateral; 0.0 directly on the mid-sagittal suture, followed by a 28-gauge dummy cannula, inserted to prevent clogging of the guide cannula. The implant was secured to the skull with Caulk Grip dental cement, and the skin was closed over the implant using wound clips. The recovery of rats from the surgical stress was monitored with daily weight, food intake, and movement.
Upon recovery of body weight, usually a week, indwelling catheters were placed in the right internal jugular vein and in the left carotid artery (Muzumdar et al., 2003). The venous catheter was extended to the level of the right atrium, and the arterial catheter was advanced to the level of the aortic arch. Recovery was continued until body weight was within 3% of the pre-operative weight (˜4-6 days). In the rats that received peripheral humanin, only the vascular catheters were placed.
Studies were performed in unrestrained rats using the insulin clamp technique, in combination with high performance liquid chromatography-purified [3-^3H]glucose, as described previously (Liu et al., 1998). Food was removed for ˜5 h before the in vivo protocol. All studies lasted 360 min and included a 120-min equilibration period, a 120-min basal period for assessment of the basal glucose turnover, and a 120-min hyperinsulinemic clamp period. All rats received ICV infusions (bolus followed by continuous ICV infusions of humanin, F6A HN or aCSF, depending on the group) over the entire 6 hours of the study. At the beginning of the basal period and 120 min before starting the glucose/insulin infusions, a primed-continuous infusion of high performance liquid chromatography-purified [3-^3H]glucose (NEN Life Science Products, Boston, Mass.; 20 μCi of bolus, 0.2 μCi/min) was initiated and maintained throughout the remaining 4 h of the study. In the final 2 hours of the study, the rats were subjected to hyperinsulinemic clamp. The protocol followed during the insulin clamp study was similar to that previously described (Liu et al., 1998). Briefly, a primed-continuous infusion of regular insulin (3 milliunits/kg-min) was administered, and a variable infusion of a 25% glucose solution was started and periodically adjusted to clamp the plasma glucose concentration at 7-8 mM. To prevent endogenous insulin secretion and in order to control for possible effects of ICV infusions on the endocrine pancreas, somatostatin (1.5 μg/kg-min) was also infused in all the groups.
A bolus of humanin (6 μg) was followed by a continuous infusion over 6 hours (total dose of 18 μg, 0.1 μg/kg/min).
F6A HN has one amino acid substitution (F6A-phenylalanine to alanine on position 6) and has been characterized. A bolus of F6 A HN ([…]) was followed by a continuous infusion over 6 hours (total 18 μg, 0.1 μg/kg/min).
Plasma glucose (sample volume 10 μl) was measured by the glucose oxidase method (Glucose Analyzer II, Beckman Instruments, Palo Alto, Calif.). […]

Sprague-Dawley rats [4] = assay: Intravenous infusion of humanin or analogs during hyperinsulinemic clamp; format: in vivo, rat; details: IV 0.0375 mg/kg/hr, clamp
[5] = ICV 18 μg over 6 h, basal period
[6] = ICV 18 μg over 6 h, hyperinsulinemic clamp

IGFBP-3: non glycosylated hIGFBP-3 (IGF binding protein-3), provided by Celtrix
PEPCK mRNA in the liver, ratio to GAPDH (PEPCK mRNA in the liver; end of clamp (Example 1)): 3.2 ±0.3 | expression of G-6Pase in the liver, ratio to GAPDH ([1]; end of clamp (Example 1)): no changes | binding to 125I-labeled IGF-1 (IGF-1): bound equally | glucose transport (3T3L1 adipocytes): inhibited insulin-stimulated glucose transport | peripheral glucose infusion rate (Sprague-Dawley rats [2]): decrease

CC[C@H](C)[C@H](NC(=O)[C@H](CCC(=O)O)NC(=O)[C@H](CO)NC(=O)[C@@H](NC(=O)[C@H](CC(C)C)NC(=O)[C@H](CC(C)C)NC(=O)[C@H](CC(C)C)NC(=O)[C@H](CC(C)C)NC(=O)[C@H](CS)NC(=O)[C@H](CO)NC(=O)[C@H](Cc1ccccc1)NC(=O)CNC(=O)[C@H](CCCNC(=N)N)NC(=O)[C@@H]1CCCN1C(=O)[C@H](C)NC(=O)[C@@H](N)CCSC)[C@@H](C)O)C(=O)N[C@@H](CC(=O)O)C(=O)N[C@@H](CC(C)C)C(=O)N1CCC[C@H]1C(=O)N[C@H](C(=O)N[C@@H](CCCCN)C(=O)N[C@@H](CCCNC(=N)N)C(=O)N[C@@H](CCCNC(=N)N)C(=O)N[C@@H](C)C(=O)O)C(C)C [Humanin, maprgfscll lltseidlpv krra]
PEPCK mRNA in the liver, ratio to GAPDH (PEPCK mRNA in the liver; end of clamp (Example 2)): 12.4 ±2.7 | expression of G-6Pase in the liver, ratio to GAPDH ([1]; end of clamp (Example 2), listed as HN): 0.87 ±0.37 and 0.89 ±0.28 | Glycogen synthesis, Basal (Sprague-Dawley rats [3]; [5]): 4.89 ± 0.61 | Glycolysis, Basal (Sprague-Dawley rats [3]; [5]): 7.99 ± 0.73 mg/kg/min | HGP, Basal (Sprague-Dawley rats [3]; [5]): 12.87 ± 1.6 mg/kg/min | FFA (Sprague-Dawley rats [3]; [6]): 0.33 ± 0.03 mEq/L | Glycogen synthesis, Clamp (Sprague-Dawley rats [3]; [6]): 9.75 ± 0.92 | Glycolysis, Clamp (Sprague-Dawley rats [3]; [6]): 15.1 ± 1.0 mg/kg/min | HGP, Clamp (Sprague-Dawley rats [3]; [6]): 2.27 ± 0.37 mg/kg/min | Rd, Clamp (Sprague-Dawley rats [3]; [6]): 24.9 ± 1.6 mg/kg/min | GIR, Clamp (Sprague-Dawley rats [3]; ICV 18 μg over 6 h, hyperinsulinemic clamp 3 mU/kg/min): 22.8 ± 1.64 mg/kg/min | increase in peripheral glucose uptake (Rd) (Sprague-Dawley rats [3]; ICV HN, hyperinsulinemic clamp): ~150% | more reduction in hepatic glucose production (HGP) (Sprague-Dawley rats [3]; ICV HN, hyperinsulinemic clamp): ~50% | suppression of FFA compared to controls (Sprague-Dawley rats [3]; ICV HN, hyperinsulinemic clamp): significantly higher | glucose infusion rate (GIR) relative to aCSF (Sprague-Dawley rats [3]; ICV HN, hyperinsulinemic clamp 3 mU/kg/min): 165 % of aCSF | glucose infusion rate (GIR) during the hyperinsulinemic clamp (Sprague-Dawley rats [3]; ICV HN, Example Summary, in mg/kg/min (unit assumed)): 25.2 ±2.6 | humanin in the rat periphery (Sprague-Dawley rats [3]; after ICV infusion): No humanin was detected | glucose transport (3T3L1 adipocytes): significantly enhanced basal as well as insulin-stimulated glucose transport | hepatic glucose output (Sprague-Dawley rats [2]; ICV HN 0.1 μg/kg/min, basal and high insulin clamp): significant decrease in hepatic glucose output | serum concentrations of HN during ICV infusion (Sprague-Dawley rats [2]; ICV infusion): undetectable | peripheral glucose infusion rate (Sprague-Dawley rats [2]): increased | peripheral insulin action (Sprague-Dawley rats [4]): Neither HN, nor the non-BP3-binding F6AHN (at doses of 0.0375 mg/kg/hr) altered peripheral insulin action
